Laboratory results: patent US8969565B2, “Imidazo[1,2-b]pyridazine-based compounds, compositions comprising them, and methods of their use” (Lexicon Pharmaceuticals, Inc., priority 2012, dated 2015)

Target: T1, AAK1 (Homo sapiens, UniProt Q2M2I8)
T1 construct: HA; expressed in transfected cells; host or cells: HEK293F
Assay: HEK281 cell-based assay (phospho-mu2 Western blot in transfected HEK293F cells)
Conditions: 3 hours incubation, read-out: CBA IC50
Summary of the method: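 After 3 hours at 37° C. with compound (five 3-fold-spaced concentrations, DMEM+0.5% FBS), transiently transfected HEK293F cells expressing full-length human AAK1 and Flag-tagged mu2 were lysed. mu2 phosphorylation was read by anti-phospho-mu2 immunoblot, normalized against total mu2 by anti-Flag blot.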

T1 sequence (Q2M2I8 1-863 isoform Q2M2I8-2): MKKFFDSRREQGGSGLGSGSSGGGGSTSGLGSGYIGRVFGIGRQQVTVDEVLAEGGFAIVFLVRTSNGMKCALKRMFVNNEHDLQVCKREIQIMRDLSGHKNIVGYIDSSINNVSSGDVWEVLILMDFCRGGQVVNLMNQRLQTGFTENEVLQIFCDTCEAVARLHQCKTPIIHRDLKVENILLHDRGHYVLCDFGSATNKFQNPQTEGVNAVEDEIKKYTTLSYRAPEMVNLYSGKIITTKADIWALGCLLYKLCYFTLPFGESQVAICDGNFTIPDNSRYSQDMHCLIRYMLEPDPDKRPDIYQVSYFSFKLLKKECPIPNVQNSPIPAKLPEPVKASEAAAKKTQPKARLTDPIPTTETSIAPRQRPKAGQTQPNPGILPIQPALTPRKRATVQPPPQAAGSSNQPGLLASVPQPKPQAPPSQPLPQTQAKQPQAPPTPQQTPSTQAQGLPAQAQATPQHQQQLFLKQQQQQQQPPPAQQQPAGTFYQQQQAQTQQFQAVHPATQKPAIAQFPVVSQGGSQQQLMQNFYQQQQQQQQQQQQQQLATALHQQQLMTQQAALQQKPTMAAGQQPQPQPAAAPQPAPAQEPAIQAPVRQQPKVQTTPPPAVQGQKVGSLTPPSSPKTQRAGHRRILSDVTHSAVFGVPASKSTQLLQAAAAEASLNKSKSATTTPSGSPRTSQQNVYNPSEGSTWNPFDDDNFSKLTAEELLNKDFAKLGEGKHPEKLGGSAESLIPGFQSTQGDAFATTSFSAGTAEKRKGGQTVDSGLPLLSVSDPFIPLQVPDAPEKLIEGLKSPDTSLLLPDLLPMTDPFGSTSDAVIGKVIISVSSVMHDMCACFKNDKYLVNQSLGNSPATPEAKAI

Structure (SMILES)	IC50 [nM]
NCc1ccc(-c2cnc3ccc(NC4CCCCC4)nn23)cc1 [[3-(4-Aminomethyl-phenyl)-imidazo[1,2-b]pyridazin-6-yl]-cyclohexylamine]	≤ 1000
CC(C)N(CCNc1ccc2ncc(-c3ccc(C(N)=O)cc3)n2n1)C(=O)OC1CCCC1 [cyclopentyl (2-((3-(4-carbamoylphenyl)imidazo[1,2-b]pyridazin-6-yl)amino)ethyl)(isopropyl)carbamate]	≤ 100
CCOC(=O)N(C)CCNc1ccc2ncc(-c3ccncc3OC)n2n1 [ethyl (2-((3-(3-methoxypyridin-4-yl)imidazo[1,2-b]pyridazin-6-yl)amino)ethyl)(methyl)carbamate]	≤ 10
CCOC(=O)N(C)CCNc1ccc2ncc(-c3ccc(C(=O)NCCC(C)C)cc3)n2n1 [ethyl (2-((3-(4-(isopentylcarbamoyl)phenyl)imidazo[1,2-b]pyridazin-6-yl)amino)ethyl)(methyl)carbamate]	≤ 100
CCOC(=O)N(C)CCNc1ccc2ncc(-c3ccc(C(=O)NC(C)(C)C)cc3)n2n1 [ethyl (2-((3-(4-(tert-butylcarbamoyl)phenyl)imidazo[1,2-b]pyridazin-6-yl)amino)ethyl)(methyl)carbamate]	≤ 100
CCOC(=O)N(C)CCNc1ccc2ncc(-c3ccc(C(=O)NC)cc3)n2n1 [ethyl methyl(2-((3-(4-(methylcarbamoyl)phenyl)imidazo[1,2-b]pyridazin-6-yl)amino)ethyl)carbamate]	≤ 100
CC(C)COC(=O)N(C)CCNc1ccc2ncc(-c3ccc(C(N)=O)cc3)n2n1 [isobutyl (2-((3-(4-carbamoylphenyl)imidazo[1,2-b]pyridazin-6-yl)amino)ethyl)(methyl)carbamate]	≤ 100
COc1cnccc1-c1cnc2ccc(NCCN(C(=O)OCC(C)C)C(C)C)nn12 [isobutyl isopropyl(2-((3-(3-methoxypyridin-4-yl)imidazo[1,2-b]pyridazin-6-yl)amino)ethyl)carbamate]	≤ 100
CNC(=O)c1cnc2ccc(N3CCN(C(=O)OC(C)C)CC3)nn12 [isopropyl 4-(3-(methylcarbamoyl)imidazo[1,2-b]pyridazin-6-yl)piperazine-1-carboxylate]	≤ 100
CC(C)OC(=O)N1CCN(c2ccc3ncc(-c4ccncc4)n3n2)CC1 [isopropyl 4-(3-(pyridin-4-yl)imidazo[1,2-b]pyridazin-6-yl)piperazine-1-carboxylate]	≤ 100
CC(C)OC(=O)N(C)CCNc1ccc2ncc(-c3cn[nH]c3)n2n1 [isopropyl (2-((3-(1H-pyrazol-4-yl)imidazo[1,2-b]pyridazin-6-yl)amino)ethyl)(methyl)carbamate]	≤ 100
CC(C)OC(=O)N(C)CCNc1ccc2ncc(-c3ccnc(N)c3)n2n1 [isopropyl (2-((3-(2-aminopyridin-4-yl)imidazo[1,2-b]pyridazin-6-yl)amino)ethyl)(methyl)carbamate]	≤ 100
CC(C)OC(=O)N(C)CCNc1ccc2ncc(-c3ccccc3F)n2n1 [isopropyl (2-((3-(2-fluorophenyl)imidazo[1,2-b]pyridazin-6-yl)amino)ethyl)(methyl)carbamate]	≤ 100
COc1ccccc1-c1cnc2ccc(NCCN(C)C(=O)OC(C)C)nn12 [isopropyl (2-((3-(2-methoxyphenyl)imidazo[1,2-b]pyridazin-6-yl)amino)ethyl)(methyl)carbamate]	≤ 100
COc1cnccc1-c1cnc2ccc(NCCNC(=O)OC(C)C)nn12 [isopropyl (2-((3-(3-methoxypyridin-4-yl)imidazo[1,2-b]pyridazin-6-yl)amino)ethyl)carbamate]	≤ 100
COc1cc(F)c(F)cc1-c1cnc2ccc(NCCN(C(=O)OC(C)C)C(C)C)nn12 [isopropyl (2-((3-(4,5-difluoro-2-methoxyphenyl)imidazo[1,2-b]pyridazin-6-yl)amino)ethyl)(isopropyl)carbamate]	≤ 100
CC(C)OC(=O)N(CCNc1ccc2ncc(-c3ccc(C(N)=O)cc3)n2n1)C(C)C [isopropyl (2-((3-(4-carbamoylphenyl)imidazo[1,2-b]pyridazin-6-yl)amino)ethyl)(isopropyl)carbamate]	≤ 100
CC(C)OC(=O)N(C)CCNc1ccc2ncc(-c3ccc(C(N)=O)cc3)n2n1 [isopropyl (2-((3-(4-carbamoylphenyl)imidazo[1,2-b]pyridazin-6-yl)amino)ethyl)(methyl)carbamate]	≤ 10
COc1cc(F)ccc1-c1cnc2ccc(NCCN(C)C(=O)OC(C)C)nn12 [isopropyl (2-((3-(4-fluoro-2-methoxyphenyl)imidazo[1,2-b]pyridazin-6-yl)amino)ethyl)(methyl)carbamate]	≤ 100
COc1ccc(F)cc1-c1cnc2ccc(NCCN(C)C(=O)OC(C)C)nn12 [isopropyl (2-((3-(5-fluoro-2-methoxyphenyl)imidazo[1,2-b]pyridazin-6-yl)amino)ethyl)(methyl)carbamate]	≤ 10
CC(C)OC(=O)N(C)CCCNc1ccc2ncc(-c3ccc(CN)cc3)n2n1 [isopropyl (3-((3-(4-(aminomethyl)phenyl)imidazo[1,2-b]pyridazin-6-yl)amino)propyl)(methyl)carbamate]	≤ 100
CC(=O)c1ccc(-c2cnc3ccc(NCCCN(C)C(=O)OC(C)C)nn23)s1 [isopropyl (3-((3-(5-acetylthiophen-2-yl)imidazo[1,2-b]pyridazin-6-yl)amino)propyl)(methyl)carbamate]	≤ 100
CCN(CCNc1ccc2ncc(-c3ccc(C(=O)NC)cc3)n2n1)C(=O)OC(C)C [isopropyl ethyl(2-((3-(4-(methylcarbamoyl)phenyl)imidazo[1,2-b]pyridazin-6-yl)amino)ethyl)carbamate]	≤ 100
COc1cnccc1-c1cnc2ccc(NCCN(C(=O)OC(C)C)C(C)C)nn12 [isopropyl isopropyl(2-((3-(3-methoxypyridin-4-yl)imidazo[1,2-b]pyridazin-6-yl)amino)ethyl)carbamate]	≤ 10
CNC(=O)c1ccc(-c2cnc3ccc(NCCN(C(=O)OC(C)C)C(C)C)nn23)cc1 [isopropyl isopropyl(2-((3-(4-(methylcarbamoyl)phenyl)imidazo[1,2-b]pyridazin-6-yl)amino)ethyl)carbamate]	≤ 100

More lines, now with the values ahead:

IC50 [nM]	Structure (SMILES)
≤ 100	CCOC(=O)CCCNc1ccc2ncc(-c3ccc(CN)cc3)n2n1 [ethyl 4-((3-(4-(aminomethyl)phenyl)imidazo[1,2-b]pyridazin-6-yl)amino)butanoate]
≤ 100	CCOC(=O)N(CCNc1ccc2ncc(-c3ccc(C(N)=O)cc3)n2n1)C(C)C [ethyl (2-((3-(4-carbamoylphenyl)imidazo[1,2-b]pyridazin-6-yl)amino)ethyl)(isopropyl)carbamate]
≤ 100	CCOC(=O)N(C)CCNc1ccc2ncc(-c3ccc(C(N)=O)cc3)n2n1 [ethyl (2-((3-(4-carbamoylphenyl)imidazo[1,2-b]pyridazin-6-yl)amino)ethyl)(methyl)carbamate]
≤ 1000	CCOC(=O)N(C)CCCNc1ccc2ncc(-c3ccc(C(C)=O)s3)n2n1 [ethyl (3-((3-(5-acetylthiophen-2-yl)imidazo[1,2-b]pyridazin-6-yl)amino)propyl)(methyl)carbamate]
≤ 10	CCOC(=O)N(CCNc1ccc2ncc(-c3ccncc3OC)n2n1)C(C)C [ethyl isopropyl(2-((3-(3-methoxypyridin-4-yl)imidazo[1,2-b]pyridazin-6-yl)amino)ethyl)carbamate]
≤ 100	CCOC(=O)N(C)CCNc1ccc2ncc(-c3ccc(C(=O)NC)s3)n2n1 [ethyl methyl(2-((3-(5-(methylcarbamoyl)thiophen-2-yl)imidazo[1,2-b]pyridazin-6-yl)amino)ethyl)carbamate]
≤ 100	CNC(=O)c1ccc(-c2cnc3ccc(NCCN(C)C(=O)OCC(C)C)nn23)cc1 [isobutyl methyl(2-((3-(4-(methylcarbamoyl)phenyl)imidazo[1,2-b]pyridazin-6-yl)amino)ethyl)carbamate]
≤ 100	CC(C)OC(=O)N1CCN(c2ccc3ncc(-c4cccc5c4OCC5)n3n2)CC1 [isopropyl 4-(3-(2,3-dihydrobenzofuran-7-yl)imidazo[1,2-b]pyridazin-6-yl)piperazine-1-carboxylate]
≤ 10	COc1cnccc1-c1cnc2ccc(N3CCN(C(=O)OC(C)C)CC3)nn12 [isopropyl 4-(3-(3-methoxypyridin-4-yl)imidazo[1,2-b]pyridazin-6-yl)piperazine-1-carboxylate]
≤ 100	CC(C)OC(=O)N1CCN(c2ccc3ncc(-c4cccc5c4OCO5)n3n2)CC1 [isopropyl 4-(3-(benzo[d][1,3]dioxo1-4-yl)imidazo[1,2-b]pyridazin-6-yl)piperazine-1-carboxylate]
≤ 100	Cc1nc(C)c(-c2cnc3ccc(NCCN(C)C(=O)OC(C)C)nn23)s1 [isopropyl (2-((3-(2,4-dimethylthiazol-5-yl)imidazo[1,2-b]pyridazin-6-yl)amino)ethyl)(methyl)carbamate]
≤ 100	COc1cnccc1-c1cnc2ccc(NCCN(C)C(=O)OC(C)C)nn12 [isopropyl (2-((3-(3-methoxypyridin-4-yl)imidazo[1,2-b]pyridazin-6-yl)amino)ethyl)(methyl)carbamate]
≤ 100	COc1ccc(F)cc1-c1cnc2ccc(NCCN(C(=O)OC(C)C)C(C)C)nn12 [isopropyl (2-((3-(5-fluoro-2-methoxyphenyl)imidazo[1,2-b]pyridazin-6-yl)amino)ethyl)(isopropyl)carbamate]
≤ 100	CCN(CCNc1ccc2ncc(-c3ccncc3OC)n2n1)C(=O)OC(C)C [isopropyl ethyl(2-((3-(3-methoxypyridin-4-yl)imidazo[1,2-b]pyridazin-6-yl)amino)ethyl)carbamate]
≤ 100	COc1ccccc1-c1cnc2ccc(NCCN(C(=O)OC(C)C)C(C)C)nn12 [isopropyl isopropyl(2-((3-(2-methoxyphenyl)imidazo[1,2-b]pyridazin-6-yl)amino)ethyl)carbamate]
≤ 100	CC(C)OC(=O)N(CCNc1ccc2ncc(-c3ccncc3)n2n1)C(C)C [isopropyl isopropyl(2-((3-(pyridin-4-yl)imidazo[1,2-b]pyridazin-6-yl)amino)ethyl)carbamate]
